{"source": "patent US20100197650A1", "about": "“COMPOSITIONS AND METHODS OF TREATMENT COMPRISING CEFTAROLINE” (FOREST LABORATORIES HOLDINGS LTD., priority 2008, published 2010)", "key": {"HA-MRSA [1]": {"tested_on": "HA-MRSA", "assay": "Susceptibility testing MIC/MBC, broth microdilution (Example 3)", "type": "cell-based, Staphylococcus aureus", "protocol": "Two hundred clinical HA-MRSA isolates, harboring the SCCmecIV type, were evaluated for susceptibility testing. […] Four strains, including 1 hVISA and 1 VISA, characterized by population analysis profile and Macro Etest were selected for time-kill analysis.\nTrypose soy agar (TSA; Difco, Detroit, Mich.) was used for colony counting.\nMinimum inhibitory concentrations (MIC) and minimum bactericidal concentrations (MBC) were determined by broth microdilution for all antimicrobials, according to the Clinical and Laboratory Standards Institute (CLSI) guidelines (Clinical and Laboratory Standards Institute. 2006. Methods for Dilution Antimicrobial Susceptibility Tests for Bacteria That Grow Aerobically; Approved Standard. 7th ed. Wayne, Pa.: CLSI). MBC values were determined by plating of aliquots of 5 μL from clear wells onto TSA. All susceptibility testing were performed in duplicate."}, "Staphylococcus aureus": {"tested_on": "Staphylococcus aureus", "assay": "MIC, broth microdilution (Example 1)", "type": "cell-based", "details": "Staphylococcus aureus", "protocol": "(§1) Stock solutions of all antibacterial agents were prepared at 80-fold (80×) the final target concentration in the appropriate solvent and the solution was allowed to stand for 60 minutes. All antibacterial agents were in solution under these conditions. The final drug concentrations in the FIC assay plates were set to bracket the MIC value of each agent for each test organism, unless the strain was totally resistant to the test agent.\n(§2) The test organisms were originally received from clinical sources, or from the American Type Culture Collection. Upon receipt, the isolates were streaked onto the appropriate growth medium: Chocolate Agar for H. influenzae, Tryptic Soy Agar II (Becton Dickinson, Sparks, Md.) supplemented with 5% defibrinated sheep blood for streptococci, and unsupplemented Tryptic Soy Agar II for all other organisms. Colonies were harvested from these plates and a cell suspension was prepared in Tryptic Soy Broth (Becton Dickinson) containing cryoprotectant. Aliquots were then frozen at −80° C. On the day prior to assay, the frozen seeds of the organisms to be tested in that session were thawed and streaked for isolation onto the appropriate agar medium plates and incubated overnight at 35° C.\n(§3) The test medium for H. influenzae was Haemophilus Test Medium. Streptococci were tested in Mueller Hinton II Broth (Becton Dickinson; Lot 6235472) supplemented with 2% lysed horse blood (Cleveland Scientific, Bath, Ohio; Lot H88621). All other organisms were tested in Mueller Hinton II Broth (Becton Dickinson, Lot 6235472). The broth was prepared at 1.05× normal weight/volume to offset the 5% volume of the drugs in the final test plates.\n(§4) In order to select the proper test concentrations for each drug combination, minimal inhibitory concentration (MIC) values were first determined using the broth microdilution method previously described (Clinical and Laboratory Standards Institute. Methods for Dilution Antimicrobial Susceptibility Tests for Bacteria That Grow Aerobically; Approved Standard—Seventh Edition. Clinical and Laboratory Standards Institute document M7-A7 [ISBN 1-56238-587-9]. Clinical and Laboratory Standards Institute, 940 West Valley Road, Suite 1400, Wayne, Pa. 19087-1898 USA, 2006).\n(§5) The wells of standard 96-well microdilution plates (Falcon 3918) were filled with 150 μL of 100% DMSO using the Multidrop 384. These plates were used to prepare the drug “mother plates” which provided the serial drug dilutions for the drug combination plates. The Biomek 2000 was used to transfer 150 μl of each stock solution (80×) from the wells in Column 1 of a deep well plate to the corresponding wells in Column 1 of the mother plate and to make seven 2-fold serial dilutions. Two mother plates, one for each drug, were combined to form a “checkerboard” pattern by transfer of equal volumes (using a multi-channel pipette) to the drug combination plate. Row H and Column 8 each contained serial dilutions of one of the agents alone for determination of the MIC.\n(§6) Plates were stacked 3 high, covered with a lid on the top plate, placed in plastic bags, and incubated at 35° C. for approximately 20 hours. Following incubation, the microplates were removed from the incubator and viewed from the bottom using a ScienceWare plate viewer. Prepared reading sheets were marked for the MIC of drug 1 (row H), the MIC of drug 2 (column 8) and the wells of the growth-no growth interface."}, "Enterococcus faecalis": {"tested_on": "Enterococcus faecalis", "assay": "MIC, broth microdilution (Example 1)", "type": "cell-based", "protocol": "as §1, §2, §3, §4, §5, §6"}, "Streptococcus pneumoniae": {"tested_on": "Streptococcus pneumoniae", "assay": "MIC, broth microdilution (Example 1)", "type": "cell-based", "details": "Streptococcus pneumoniae", "protocol": "as §1, §2, §3, §4, §5, §6"}, "HA-MRSA [2]": {"tested_on": "HA-MRSA", "assay": "Time-kill curves at ¼ and ½ MIC (Example 3)", "type": "cell-based, Staphylococcus aureus", "details": "drug alone at ½ MIC, the 4 tested HA-MRSA strains", "procedure": "Four randomly selected HA-MRSA isolates were evaluated in time-kill experiments, using a starting inoculum at ˜10^6 CFU/mL and antimicrobials at ¼ and ½ MIC. Regimens included ceftaroline, vancomycin and tobramycin alone or combination of tobramycin with ceftaroline or vancomycin. […] Additivity, antagonism and indifference were defined as <2 but >1 log10 kill, >1 log10 growth and ±1 log kill, respectively.\nDifferences between regimens were analyzed by T-test or ANOVA with Tukey's post hoc test. […] A P value <0.05 was considered significant."}, "[3]": {"details": "Staphylococcus aureus, MRSA / VISA, HA-MRSA isolate R2303 (VISA)"}, "[4]": {"details": "Staphylococcus aureus, MRSA, HA-MRSA isolate R3804"}, "[5]": {"details": "Staphylococcus aureus, MRSA, HA-MRSA isolate R3875 (hVISA)"}, "[6]": {"details": "Staphylococcus aureus, MRSA, HA-MRSA isolate R4039"}}}
{"smiles": "CN[C@H](CC(C)C)C(=O)N[C@H]1C(=O)N[C@@H](CC(N)=O)C(=O)N[C@H]2C(=O)N[C@H]3C(=O)N[C@H](C(=O)N[C@H](C(=O)O)c4cc(O)cc(O)c4-c4cc3ccc4O)[C@H](O)c3ccc(c(Cl)c3)Oc3cc2cc(c3O[C@@H]2O[C@H](CO)[C@@H](O)[C@H](O)[C@H]2O[C@H]2C[C@](C)(N)[C@H](O)[C@H](C)O2)Oc2ccc(cc2Cl)[C@H]1O", "note": "[Vancomycin]", "values": [{"measurement": "% of Isolates with MBC 0.25 μg/mL", "setting": "HA-MRSA [1]; 200 HA-MRSA isolates", "value": 0.5, "unit": "%"}, {"measurement": "% of Isolates with MBC 0.5 μg/mL", "setting": "HA-MRSA [1]; 200 HA-MRSA isolates", "value": 6, "unit": "%"}, {"measurement": "% of Isolates with MBC 1 μg/mL", "setting": "HA-MRSA [1]; 200 HA-MRSA isolates", "value": 52.5, "unit": "%"}, {"measurement": "% of Isolates with MBC 2 μg/mL", "setting": "HA-MRSA [1]; 200 HA-MRSA isolates", "value": 36.5, "unit": "%"}, {"measurement": "% of Isolates with MBC ≧4 μg/mL", "setting": "HA-MRSA [1]; 200 HA-MRSA isolates", "value": 4.5, "unit": "%"}, {"measurement": "% of Isolates with MIC 0.25 μg/mL", "setting": "HA-MRSA [1]; 200 HA-MRSA isolates", "value": 1.5, "unit": "%"}, {"measurement": "% of Isolates with MIC 0.5 μg/mL", "setting": "HA-MRSA [1]; 200 HA-MRSA isolates", "value": 14.5, "unit": "%"}, {"measurement": "% of Isolates with MIC 1 μg/mL", "setting": "HA-MRSA [1]; 200 HA-MRSA isolates", "value": 62, "unit": "%"}, {"measurement": "% of Isolates with MIC 2 μg/mL", "setting": "HA-MRSA [1]; 200 HA-MRSA isolates", "value": 21.5, "unit": "%"}, {"measurement": "% of Isolates with MIC ≧4 μg/mL", "setting": "HA-MRSA [1]; 200 HA-MRSA isolates", "value": 0.5, "unit": "%"}, {"measurement": "MBC range", "setting": "HA-MRSA [1]; 200 HA-MRSA isolates", "value": "0.25 to 4", "unit": "µg/mL"}, {"measurement": "MIC range", "setting": "HA-MRSA [1]; 200 HA-MRSA isolates", "value": "0.25 to 4", "unit": "µg/mL"}, {"measurement": "MIC50", "setting": "HA-MRSA [1]; Staphylococcus aureus, MRSA", "value": 1, "unit": "µg/mL"}, {"measurement": "MIC90", "setting": "HA-MRSA [1]; Staphylococcus aureus, MRSA", "value": 2, "unit": "µg/mL"}, {"measurement": "MBC", "setting": "HA-MRSA [1]; [3]", "value": 8, "unit": "µg/mL"}, {"measurement": "MIC", "setting": "HA-MRSA [1]; [3]", "value": 4, "unit": "µg/mL"}, {"measurement": "MBC", "setting": "HA-MRSA [1]; [4]", "value": 1, "unit": "µg/mL"}, {"measurement": "MIC", "setting": "HA-MRSA [1]; [4]", "value": 0.5, "unit": "µg/mL"}, {"measurement": "MBC", "setting": "HA-MRSA [1]; [5]", "value": 2, "unit": "µg/mL"}, {"measurement": "MIC", "setting": "HA-MRSA [1]; [5]", "value": 2, "unit": "µg/mL"}, {"measurement": "MBC", "setting": "HA-MRSA [1]; [6]", "value": 1, "unit": "µg/mL"}, {"measurement": "MIC", "setting": "HA-MRSA [1]; [6]", "value": 1, "unit": "µg/mL"}, {"measurement": "MIC", "setting": "Staphylococcus aureus; MRSA, S. aureus 0765 (MRSA)", "value": 2, "unit": "µg/mL"}, {"measurement": "MIC", "setting": "Staphylococcus aureus; MRSA, S. aureus 2053 (MRSA)", "value": 1, "unit": "µg/mL"}, {"measurement": "MIC", "setting": "Staphylococcus aureus; MSSA, S. aureus 0753 (MSSA)", "value": 1, "unit": "µg/mL"}, {"measurement": "MIC", "setting": "Staphylococcus aureus; MSSA, S. aureus 2063 (MSSA)", "value": 1, "unit": "µg/mL"}, {"measurement": "MIC", "setting": "Enterococcus faecalis; E. faecalis 0796 (VSE)", "value": 2, "unit": "µg/mL"}, {"measurement": "MIC", "setting": "Enterococcus faecalis; Enterococcus faecalis", "value": 2, "unit": "µg/mL"}, {"measurement": "MIC", "setting": "Streptococcus pneumoniae; PRSP, S. pneumoniae 0880 (PRSP)", "value": 0.5, "unit": "µg/mL"}, {"measurement": "MIC", "setting": "Streptococcus pneumoniae; PRSP, S. pneumoniae 0884 (PRSP)", "value": 0.5, "unit": "µg/mL"}, {"measurement": "MIC", "setting": "Streptococcus pneumoniae; S. pneumoniae 0866 (PSSP)", "value": 0.25, "unit": "µg/mL"}, {"measurement": "MIC", "setting": "Streptococcus pneumoniae; S. pneumoniae 0869 (PSSP)", "value": 0.5, "unit": "µg/mL"}, {"measurement": "bactericidal activity", "setting": "HA-MRSA [2]", "value": "did not display bactericidal activity"}]}
